Assay results reported in ChEMBL document CHEMBL3243933, “3-Aryl-as-triazines as potential antiinflammatory agents” (1977).
Calls of active or inactive are those of the source. The rule behind the calls is not given here.

Tests used:
Rattus norvegicus [1] = experiment: Antiinflammatory activity in rat assessed as inhibition of carrageenan-induced paw edema at 250 mg/kg administered via gavage relative to control; type: functional
Rattus norvegicus [2] = experiment: Antiinflammatory activity in rat adjuvant-induced arthritis model assessed as mean surface area of paw at 50 mg/kg/day administered via gavage relative to control; type: functional
Rattus norvegicus [3] = experiment: Antiinflammatory activity in rat adjuvant-induced arthritis model assessed as mean surface area of paw at 250 mg/kg administered via gavage relative to control; type: functional, organism-based; design: dose 250 mg/kg
Rattus norvegicus [4] = experiment: Antiinflammatory activity in rat assessed as inhibition of carrageenan-induced paw edema at 50 mg/kg administered via gavage relative to control; type: functional
Rattus norvegicus [5] = experiment: Antiinflammatory activity in rat adjuvant-induced arthritis model assessed as mean surface area of paw at 400 mg/kg/day administered via gavage relative to control; type: functional

SMILES	C/T (Rattus norvegicus [1])	Ratio (Rattus norvegicus [2])	Activity (Rattus norvegicus [3])	C/T (Rattus norvegicus [4])	Ratio (Rattus norvegicus [5])
Clc1ccc(-c2nncnn2)cc1	3.07	0.54	–	–	–
Fc1ccc(-c2nncnn2)cc1	2.8	0.46	–	–	–
Fc1ccc(-c2nccnn2)cc1	2.67	–	inactive	–	–
CC(=O)Oc1ccccc1C(=O)O [ASPIRIN]	–	–	–	2.8	0.55
Clc1ccc(-c2nccnn2)cc1	2.25	–	inactive	–	–
